From patent publication US10000512B2, “Compounds for the treatment of infectious diseases” (Hoffmann-La Roche Inc., priority 2014, dated 2018)

Tests used:
[1] = target: T1, human TLR7 (Homo sapiens, UniProt Q9NYK1); test: HEK293-Blue-hTLR-7 cells assay (SEAP reporter); type: cell-based; settings: 20 hours incubation
T1 sequence (Q9NYK1 27-1049): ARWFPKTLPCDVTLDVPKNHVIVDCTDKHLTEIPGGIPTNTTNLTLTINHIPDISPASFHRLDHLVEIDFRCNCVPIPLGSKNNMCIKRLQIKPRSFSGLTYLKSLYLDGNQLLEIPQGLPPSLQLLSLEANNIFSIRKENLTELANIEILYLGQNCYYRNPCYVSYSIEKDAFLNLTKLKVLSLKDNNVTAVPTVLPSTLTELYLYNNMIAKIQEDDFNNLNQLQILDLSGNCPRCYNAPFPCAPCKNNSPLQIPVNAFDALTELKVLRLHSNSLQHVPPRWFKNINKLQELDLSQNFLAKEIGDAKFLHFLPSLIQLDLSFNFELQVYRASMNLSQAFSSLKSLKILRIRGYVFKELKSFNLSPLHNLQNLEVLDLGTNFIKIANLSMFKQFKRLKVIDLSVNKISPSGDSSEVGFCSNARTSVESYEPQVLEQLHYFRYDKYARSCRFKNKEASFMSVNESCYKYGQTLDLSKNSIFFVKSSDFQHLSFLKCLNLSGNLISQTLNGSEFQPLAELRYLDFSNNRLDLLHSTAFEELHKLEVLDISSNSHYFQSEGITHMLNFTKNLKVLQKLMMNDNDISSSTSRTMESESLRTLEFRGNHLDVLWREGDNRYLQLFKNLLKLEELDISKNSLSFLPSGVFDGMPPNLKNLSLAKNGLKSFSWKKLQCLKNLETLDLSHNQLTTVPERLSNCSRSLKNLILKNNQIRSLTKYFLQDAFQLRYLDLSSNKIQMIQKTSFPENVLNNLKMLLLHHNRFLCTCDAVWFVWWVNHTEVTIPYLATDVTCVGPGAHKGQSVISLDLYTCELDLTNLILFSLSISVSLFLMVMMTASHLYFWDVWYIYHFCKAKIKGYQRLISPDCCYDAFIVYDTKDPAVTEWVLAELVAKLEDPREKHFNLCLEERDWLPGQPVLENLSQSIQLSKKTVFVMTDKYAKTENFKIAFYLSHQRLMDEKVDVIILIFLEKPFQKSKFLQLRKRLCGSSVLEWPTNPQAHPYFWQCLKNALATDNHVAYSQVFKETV
Text: A stable HEK293-Blue-hTLR-7 cell line was purchased from InvivoGen (Cat.#: hkb-ht1r7, San Diego, Calif., USA). These cells were designed for studying the stimulation of human TLR7 by monitoring the activation of NF-κB. A SEAP (secreted embryonic alkaline phosphatase) reporter gene was placed under the control of the IFN-β minimal promoter fused to five NF-κB and AP-1-binding sites. The SEAP was induced by activating NF-κB and AP-1 via stimulating HEK-Blue hTLR7 cells with TLR7 ligands. Therefore the reporter expression was regulated by the NF-κB promoter upon stimulation of human TLR7 for 20 hours. The cell culture supernatant SEAP reporter activity was determined using QUANTI-Blue™ kit (Cat.#: rep-qb1, Invivogen, San Diego, Calif., USA) at a wavelength of 640 nm, a detection medium that turns purple/blue in the presence of alkaline phosphatase.
HEK293-Blue-hTLR7 cells were incubated at a density of 250,000˜450,000 cells/mL in a volume of 180 μL in a 96-well plate in Dulbecco's Modified Eagle's medium (DMEM) containing 4.5 g/L glucose, 50 U/mL penicillin, […] streptomycin, […] Normocin, 2 mM L-glutamine, 10% (v/v) heat-inactivated fetal bovine serum for 24 h. Then the HEK293-Blue-hTLR-7 cells were incubated with addition of 20 μL test compound in a serial dilution in the presence of final DMSO at 1% and perform incubation under 37° C. in a CO2 incubator for 20 hours. Then 20 μL of the supernatant from each well was incubated with 180 μL Quanti-blue substrate solution at 37° C. for 2 h and the absorbance was read at 620˜655 nm using a spectrophotometer. The signalling pathway that TLR7 activation leads to downstream NF-κB activation has been widely accepted, and therefore similar reporter assay was also widely used for evaluating TLR7 agonist (Tsuneyasu Kaisho and Takashi Tanaka, Trends in Immunology, Volume 29, Issue 7, July 2008, […]; Hiroaki Hemmi et al, Nature Immunology 3, 196-200 (2002).

[2] = system: AAV-HBV; test: In vivo antiviral efficacy in AAV-HBV mouse model; parameters: species or system C57BL/6 mice; settings: mouse serum
Procedure: Example 6-A was evaluated for its in vivo antiviral efficacy using an AAV-HBV mouse model. This mouse model for HBV infection was generated by injecting C57BL/6 mice with a recombinant adeno-associated virus (AAV) carrying a replicable HBV (hepatitis B virus) genome (AAV-HBV). In 3 weeks post infection, high levels of HBV viral markers, such as HBV genomic DNA and HBsAg (HBV surface antigen), was detected in the sera of infected mice. With persistent HBV viremia and fully competent immune system, the AAV-HBV model is suitable for investigating the in vivo efficacy of Example 6-A.
To establish the AAV-HBV model, a total of fifteen 4-week old male C57BL/6 mice, specific pathogen free, were purchased from Shanghai Laboratory Animal Center of Chinese Academy of Sciences (SLAC) and housed in an animal care facility in individually ventilated cages under controlled temperature and light conditions following the Institutional Animal Care guidelines. AAV-HBV virus stock was available from Beijing FivePlus Molecular Medicine Institute (Beijing, China). C57BL/6 mice were injected with 200 μL of recombinant virus in saline buffer through tail vein injection. The mice were bled on day 14 post injection to monitor HBsAg, HBeAg, and HBV genomic DNA in serum. On day 29 post injection, the fifteen mice were randomly recruited into 3 groups based on their HBV biomarker levels, and started to receive treatments, as shown in Table 3.
Mice in group 1 were treated with vehicle placebo (2% Klucel LF, 0.1% Polysorbate 80, and 0.1% Parabens in water); mice in group 2 and 3 were treated with Example 6-A at 30 mg/kg and 100 mg/kg respectively, every other day (QOD). All the mice were orally dosed for a total of 6 weeks. Serum samples were collected twice a week to monitor HBV biomarkers. Serum HBsAg was measured using CLIA kits (Autobio Diagnostics Co., Ltd, Zhengzhou, China) according to the manufacturer's instructions. The lower limit of detection for HBsAg was 0.1 ng/mL. Serum dilution of 500-fold (for HBsAg) was used to obtain values within the linear range of the standard curve. Serum HBV DNA was extracted using a MagNA Pure 96 DNA and Viral NA Small Volume Kit (Roche) following the manufacturer's instructions. The DNA samples were analyzed by real-time quantitative PCR (qPCR) using a HBV-specific primer and probe set for specific amplification and detection of a 128 bp HBV genome region from the nucleotide 2969 to 3096.

[3] = 30 mg/kg PO QOD, after the 6-week treatment
[4] = 100 mg/kg PO QOD, at the end of the treatment (6 weeks)

SMILES | EC50 [1] | other results
CCCC(O)[C@H]1O[C@@H](n2c(=O)sc3c(=O)[nH]c(N)nc32)CS1 (single isomer, unassigned) [Example 9-B] | 160 µM | –
C=CCC(O)[C@H]1O[C@@H](n2c(=O)sc3c(=O)[nH]c(N)nc32)CS1 (single isomer, unassigned) [Example 18-A] | 29 µM | –
CC(=O)OC(C1CC1)[C@H]1O[C@@H](n2c(=O)sc3cnc(N)nc32)CS1 (single isomer, unassigned) [Example 6-A] | – | reduction in HBV DNA [2, 3]: more than 2 log; reduction in HBsAg [2, 3]: 0.8 log; reduction in HBV DNA [2, 4]: more than 3 log; reduction in HBsAg [2, 4]: 2.4 log
C#CC(O)[C@H]1O[C@@H](n2c(=O)sc3c(=O)[nH]c(N)nc32)CS1 (single isomer, unassigned) [Example 15-A] | 16.7 µM | –
CC(C)CC(O)[C@H]1O[C@@H](n2c(=O)sc3c(=O)[nH]c(N)nc32)CS1 (single isomer, unassigned) [Example 17-B] | 93.6 µM | –
CC#CC(O)C1OC(n2c(=O)sc3c(=O)[nH]c(N)nc32)[C@H](C)S1 (single isomer, unassigned) [Example 24-A] | 10.1 µM | –
CC#CC(O)[C@H]1O[C@@H](n2c(=O)sc3c(=O)[nH]c(N)nc32)CS1 (single isomer, unassigned) [Example 10-A] | 7.6 µM | –
CC#CC(OC(C)=O)[C@H]1O[C@@H](n2c(=O)sc3c(=O)[nH]c(N)nc32)CS1 (single isomer, unassigned) [Example 13-A] | 151 µM | –
CC(=O)OC(C1CC1)[C@H]1O[C@@H](n2c(=O)sc3c(=O)[nH]c(N)nc32)CS1 (single isomer, unassigned) [Example 7-A] | 61.7 µM | –
CC#CC(O)[C@H]1O[C@@H](n2c(=O)sc3c(=O)[nH]c(N)nc32)CS1 (single isomer, unassigned) [Example 10-B] | 122 µM | –
C[C@@H]1S[C@@H](CO)OC1n1c(=O)sc2c(=O)[nH]c(N)nc21 (single isomer, unassigned) [Example 21-A] | 53.9 µM | –
Nc1nc2c(sc(=O)n2[C@H]2CS[C@@H](C(O)C#CC3CC3)O2)c(=O)[nH]1 (single isomer, unassigned) [Example 14-A] | 54.3 µM | –
CCCCC(O)[C@H]1O[C@@H](n2c(=O)sc3c(=O)[nH]c(N)nc32)CS1 (single isomer, unassigned) [Example 19-A] | 32.9 µM | –
CC[C@H](O)C1OC(n2c(=O)sc3c(=O)[nH]c(N)nc32)[C@H](C)S1 (single isomer, unassigned) [Example 22-A] | 4.7 µM | –

More lines, in order of falling EC50 [1], values ahead:

EC50 [1] | SMILES | other results
306 µM | Nc1nc2c(sc(=O)n2[C@H]2CS[C@@H](C(O)C3CC3)O2)c(=O)[nH]1 (single isomer, unassigned) [Example 4-B] | –
178 µM | C=CCC1SC(CO)OC1n1c(=O)sc2c(=O)[nH]c(N)nc21 (single isomer, unassigned) [Example 25-A, 3-[4-Allyl-2-(hydroxymethyl)-1,3-oxathiolan-5-yl]-5-amino-6H-thiazolo[4,5-d]pyrimidine-2,7-dione] | –
125 µM | Nc1nc2c(sc(=O)n2[C@H]2CS[C@@H](CO)O2)c(=O)[nH]1 [Example 2-A, 5-amino-3-[(2S,5R)-2-(hydroxymethyl)-1,3-oxathiolan-5-yl]-6H-thiazolo[4,5-d]pyrimidine-2,7-dione] | –
97 µM | Nc1nc2c(sc(=O)n2C2CSC(CO)O2)c(=O)[nH]1 (stereo not shown) [Example 1, 5-Amino-3-[2-(hydroxymethyl)-1,3-oxathiolan-5-yl]-6H-thiazolo[4,5-d] pyrimidine-2,7-dione] | –
63.3 µM | CC(C)CC(O)[C@H]1O[C@@H](n2c(=O)sc3c(=O)[nH]c(N)nc32)CS1 (single isomer, unassigned) [Example 17-A] | –
46.5 µM | CC(O)[C@H]1O[C@@H](n2c(=O)sc3c(=O)[nH]c(N)nc32)CS1 (single isomer, unassigned) [Example 16-A] | –
33.9 µM | Nc1nc2c(sc(=O)n2[C@H]2CS[C@@H](C(O)c3cccs3)O2)c(=O)[nH]1 (single isomer, unassigned) [Example 20-A] | –
31.5 µM | C[C@@H]1S[C@@H](C(O)C2CC2)OC1n1c(=O)sc2c(=O)[nH]c(N)nc21 (single isomer, unassigned) [Example 23-B] | –
16.5 µM | CCC(O)[C@H]1O[C@@H](n2c(=O)sc3c(=O)[nH]c(N)nc32)CS1 (single isomer, unassigned) [Example 8-A] | –
10 µM | CCCC(O)[C@H]1O[C@@H](n2c(=O)sc3c(=O)[nH]c(N)nc32)CS1 (single isomer, unassigned) [Example 9-A] | –
4.5 µM | C[C@@H]1S[C@@H](C(O)C2CC2)OC1n1c(=O)sc2c(=O)[nH]c(N)nc21 (single isomer, unassigned) [Example 23-A] | –
